Results published in patent publication US6900354B2, “3-phenyl-propionamido, 3-phenyl-acrylamido and 3-phenyl-propynamido derivatives” (Hoffman-La Roche Inc., priority 2002, dated 2005).

Experiments:
human MAO-A = target: T1, human MAO-A (Homo sapiens, UniProt P21397); experiment: MAO-A enzymatic activity, spectrophotometric assay (Amplex Red, tyramine) on membranes of transfected EBNA cells; assay type: biochemical; details: heading: MAO-A IC50, substrate tyramine, 30 min preincubation at 37° C., pH 7.4
T1 construct: expressed in transfected cells; host or cells: EBNA cells (transient transfection); membranes by centrifugation at 45,000 x g
T1 sequence (P21397 1-527): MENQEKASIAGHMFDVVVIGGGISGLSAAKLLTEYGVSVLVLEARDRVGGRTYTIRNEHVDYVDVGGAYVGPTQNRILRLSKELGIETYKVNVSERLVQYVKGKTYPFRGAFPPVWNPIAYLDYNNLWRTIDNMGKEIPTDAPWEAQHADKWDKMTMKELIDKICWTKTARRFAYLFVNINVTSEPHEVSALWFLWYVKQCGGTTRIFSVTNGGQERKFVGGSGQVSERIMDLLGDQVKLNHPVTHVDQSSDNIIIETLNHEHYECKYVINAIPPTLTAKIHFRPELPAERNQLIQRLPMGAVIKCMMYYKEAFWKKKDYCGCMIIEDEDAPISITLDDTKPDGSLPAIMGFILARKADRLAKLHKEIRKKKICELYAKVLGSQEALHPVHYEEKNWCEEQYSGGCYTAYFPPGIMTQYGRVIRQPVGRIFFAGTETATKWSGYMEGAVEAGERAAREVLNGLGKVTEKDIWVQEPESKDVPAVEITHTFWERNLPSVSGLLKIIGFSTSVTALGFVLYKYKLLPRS
Method: (§1) The pharmacological activity of the compounds was tested using the following method. The cDNAs encoding human MAO-A and MAO-B were transiently transfected into EBNA cells using the procedure described by Schlaeger and Christensen [Transient Gene Expression in Mammalian Cells Grown in Serum-free Suspension Culture; Cytotechnology, 15:1-13 (1998)]. After transfection, cells were homogenised by means of a Polytron homogenizer in 20 mM Tris HCl buffer, pH 8.0, containing 0.5 mM EGTA and 0.5 mM phenylmethanesulfonyl fluoride. Cell membranes were obtained by centrifugation at 45,000×g and, after two rinsing step with 20 mM Tris HCl buffer, pH 8.0, containing 0.5 mM EGTA, membranes were eventually re-suspended in the above buffer and aliquots stored at −80° C. until use.
(§2) MAO-A and MAO-B enzymatic activity was assayed in 96-well-plates using a spectrophotometric assay adapted from the method described by Zhou and Panchuk-Voloshina [A One-Step Fluorometric Method for the Continuous Measurement of Monoamine Oxidase Activity, Analytical Biochemistry 253:169-174 (1997)]. Briefly, membrane aliquots were incubated in 0.1 M potassium phosphate buffer, pH 7.4, for 30 min at 37° C. with or without various concentrations of the compounds. After this period, the enzymatic reaction was started by the addition of the MAO substrate tyramine together with 1 U/ml horse-radish peroxidase (Roche Biochemicals) and 80 μM N-acetyl-3,7,-dihydroxyphenoxazine (Amplex Red, Molecular Probes). The samples were further incubated for 30 min at 37° C. in a final volume of 200 μl and absorbance was then determined at a wavelength of 570 nm using a SpectraMax plate reader (Molecular Devices). Background (non-specific) absorbance was determined in the presence of 10 μM clorgyline for MAO-A or 10 μM L-deprenyl for MAO-B.
(§3) IC50 values were determined from inhibition curves obtained using nine inhibitor concentrations in duplicate, by fitting data to a four parameter logistic equation using a computer program.

human MAO-B = target: T2, human MAO-B (Homo sapiens, UniProt P27338); experiment: MAO-B enzymatic activity, spectrophotometric assay (Amplex Red, tyramine) on membranes of transfected EBNA cells; assay type: biochemical; details: substrate tyramine, 30 min preincubation at 37° C., pH 7.4
T2 construct: expressed in transfected cells; host or cells: EBNA cells (transient transfection); membranes by centrifugation at 45,000 x g
T2 sequence (P27338 1-520): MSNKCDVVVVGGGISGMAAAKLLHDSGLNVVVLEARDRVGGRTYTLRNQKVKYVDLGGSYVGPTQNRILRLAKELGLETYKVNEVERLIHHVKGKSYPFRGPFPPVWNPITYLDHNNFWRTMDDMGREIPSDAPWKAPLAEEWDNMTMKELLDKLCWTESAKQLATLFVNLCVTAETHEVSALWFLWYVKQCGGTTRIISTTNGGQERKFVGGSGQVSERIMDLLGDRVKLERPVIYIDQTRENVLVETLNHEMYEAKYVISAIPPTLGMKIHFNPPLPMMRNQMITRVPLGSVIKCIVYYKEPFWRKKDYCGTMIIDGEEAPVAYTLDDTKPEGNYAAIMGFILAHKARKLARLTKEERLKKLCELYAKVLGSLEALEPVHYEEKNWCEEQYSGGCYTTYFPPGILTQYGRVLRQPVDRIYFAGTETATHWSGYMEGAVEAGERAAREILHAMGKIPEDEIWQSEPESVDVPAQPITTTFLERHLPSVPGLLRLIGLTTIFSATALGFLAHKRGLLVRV
Method: as §1, §2, §3

| IC50 (human MAO-A) [nM] | IC50 (human MAO-B) [nM] | SMILES |
| --- | --- | --- |
| > 10000 | 83 | CC(=Cc1ccc(OCc2cccc(F)c2)cc1)C(N)=O [Example 1, 3-[4-(3-Fluoro-benzyloxy)-phenyl]-2-methyl-acrylamide] |
| > 10000 | 29 | CNC(=O)C(C)Cc1ccc(OCc2cccc(F)c2)cc1 (stereo not drawn) [Example 4, 3-[4-(3-Fluoro-benzyloxy)-phenyl]-2,N-dimethyl-propionamide] |
| 5620 | 98 | NC(=O)C#Cc1ccc(OCc2cccc(F)c2)cc1 [Example 5, 3-[4-(3-Fluoro-benzyloxy)-phenyl]-propynoic acid amide] |
